Results: patent publication USRE39096E1, “Treatment of skin disorders” (Hadasit Medical Research Services and Development Company …, priority 1997, dated 2006)
Values joined by “and” are separate entries in the source; they are usually repeats but may differ in a detail not shown here. Equal values may be shown once. Read-outs that look alike come from different tables or passages of the source.

Legend:
rats = experiment: Post-surgical abdominal adhesion formation in rats, Halofuginone in diet as pretreatment; format: in vivo, rat
Description: The experimental method was as follows. Halofuginone was administered in the diet of two groups of rats at a concentration of 5 mg/kg dry feed for 4 days before surgery, as a pretreatment. Two other groups of rats were fed a normal diet and served as control groups. One of the groups of rats fed Halofuginone and one control group then underwent surgery, which was performed as follows. First, the abdomen of the rats was shaved and prepared with iodine and alcohol. The abdominal cavity was entered through a mid-line incision. The small intestine was scraped from the duodenum down to from about 9 to about 10 cm from the cecum, until capillary bleeding occurred. To avoid drying, Hartman's solution at about 37 C. was occasionally dripped on the intestine. After replacement of the intestine into the abdominal cavity, the abdomen was closed in two layers with continuous 00 chromic catgut suture.
In those rats receiving the drug, Halofuginone treatment was continued for 21 days following surgery. At the end of 21 days, the rats were weighed and the number and severity of adhesions were determined according to a double-blind procedure, in which adhesions were classified according to the following grading: 0=no adhesions; I=a thin, filmy, easily separated adhesion; II=several thin adhesions; III=a thick, broad adhesion and IV=several thick adhesions. Clearly, 0 is the least severe and IV is the most severe grade.

[1] = system: bovine corneal endothelial cells; experiment: Sulfate incorporation into ECM of cultured endothelial cells; format: cell-based; settings: FIG. 3
From the text: (§1) As noted above, skin cell hyperproliferation is enabled by the deposition of ECM components. The following examples illustrate the ability of Halofuginone to inhibit such deposition of ECM components, further supporting the use of Halofuginone as a treatment for psoriasis. These examples illustrate the unexpected finding that Halofuginone completely abolishes deposition of all ECM components, and not just collagen, thereby preventing cell proliferation which is enabled by the formation of ECM. Cultures of bovine corneal endothelial cells were established from steer eyes and maintained as previously described [D. Gospodarowicz, et al., Exp. Eye Res., No. 25, pp. 75-99 (1977)]. Cells were cultured at 37° C. in 10% CO2 humidified incubators and the experiments were performed with early (3-8) cell passages.
(§2) For preparation of sulfate-labelled ECM (extra-cellular matrix), corneal endothelial cells were seeded into Swell plates at a confluent density forming, within 4-6 h, a contact inhibited cell monolayer composed of closely apposed, and growth arrested cells. […] To determine the total amount of sulfate labeled material, the ECM was digested with trypsin (25 μg/ml 24 h, 37° C.) and the solubilized material counted in a β-counter.

Rat mesengial cells = experiment: Sulfate and glycine incorporation into rat mesengial cell ECM; format: cell-based; settings: for inhibition at 0.05 µg/mL / inhibition at 0.2 µg/mL: Rattus norvegicus; for inhibition at 0.05 µg/mL: 50 ng/ml Halofuginone; for inhibition at 0.2 µg/mL: 200 ng/ml Halofuginone
Description: Rat […] grown to confluency, 24 hours after seeding. The cells were then cultured with or without Halofuginone in the presence of either Na2^35SO4 (FIGS. 5A and 5B) or ^14C-glycine (FIGS. 5C and 5D). Eight days after seeding, the cell layer was dissolved to expose the underlying ECM, washed and digested with collagenase to determine the effect of Halofuginone on CDP proteins, as shown in FIGS. 5A and 5C. The remaining material was digested with trypsin and subjected to β-scintillation counting to determine the effect of Halofuginone on NCDP proteins, as shown in FIGS 5B and 5D.

[2] = system: bovine corneal endothelial cells; experiment: Viability and morphology of confluent corneal endothelial cell monolayer; format: cell-based; settings: growth arrested monolayer
From the text: as §1, §2

[3] = system: bovine corneal endothelial cells; experiment: Incorporation of sulfate, proline, lysine and glycine into ECM of bovine corneal endothelial cells; format: cell-based; settings: eight days after seeding
Description: Corneal endothelial cells were seeded at a confluent density and grown as described in Example 3 above. The cells were cultured with or without Halofuginone in the presence of either Na2^35SO4 (FIG. 4A), ^3H-proline (FIG. 4B), ^14C-lysine (FIG. 4C) or ^14C-glycine (FIG. 4D). Eight days after seeding, the cell layer was dissolved substantially as described in Example 3 above. The underlying ECM was then either trypsinized to determine the effect of Halofuginone on incorporation of labeled material into total protein, substantially as described in Example 3 above, or subjected to sequential digestions with collagenase and trypsin to evaluate the effect of Halofuginone on both collagenase-digestible proteins (CDP) and non-collagenase digestible proteins (NCDP).

keloid-derived cells = experiment: Collagen synthesis in keloid-derived cells ([3H]proline incorporation, collagenase digestion); format: cell-based, human; settings: 24 hours incubation, FIG. 2
Description: A keloid, which had arisen in response to the piercing of the ear for insertion of an earring, was removed from the ear lobe of a person. The keloid tissue was sectioned so that histological studies could be performed. Briefly, the tissue samples were collected into phosphate-buffered saline (PBS) and fixed overnight in 4% paraformaldehyde in PBS at 4° C. Serial 5 um sections were prepared after the samples had been dehydrated in graded ethanol solutions, cleared in chloroform and embedded in Paraplast. Differential staining of collagenous and non-collagenous proteins was performed with 0.1% Sirius red and 0.1% fast green as a counter-stain in picric acid. This procedure stains collagen red [Gascon-Barre, M., et al., J. Histochem. Cytochem., Vol 37, p. 377-381, 1989].
The keloid was removed as described in Example 1 above. The keloid-derived cells were incubated with and without Halofuginone for 24 hours in 0.5 ml glutamine-free DMEM containing 5% FCS (Fetal Calf Serum), ascorbic acid (50 μg/ml), B-aminopropionitrile (50 μg/ml) and 2 μCi of [^3H]proline. At the end of incubation, the medium was decanted and the cells were incubated with or without collagenase for 18 hours, followed by precipitation of proteins by the addition of TCA (trichloroacetic acid). […]

SMILES: O=C(CC1NCCCC1O)Cn1cnc2cc(Br)c(Cl)cc2c1=O (centres unmarked) [Halofuginone]
- Adhesion Score (rats; individual rats, Group Number 2 (taken as surgery + Halofuginone 5 mg/kg dry feed, 4 days before and 21 days after surgery)): 0-1 (3×) and 0 (3×) and 1 (2×) and 1-2 (2×)
- adhesions in rats without surgical intervention (rats; no surgery, Halofuginone in diet): None of the rats without surgical intervention
- post-surgical adhesion formation (rats; rats with surgery, Halofuginone in diet 5 mg/kg dry feed): able to inhibit post-surgical adhesion formation
- inhibition of sulfate incorporation into ECM ([1]; 1 μg/ml Halofuginone): almost complete inhibition
- inhibition at 0.2 µg/mL ([1]; Bos taurus, Endothelial cell, 0.2 μg/ml Halofuginone): 50%
- microscopic examination of denuded culture dishes (ECM layer) (Rat mesengial cells; ECM produced in the presence of Halofuginone): thin or non-existant layer of ECM
- inhibition at 0.05 µg/mL (Rat mesengial cells; collagenase-digestible proteins, read-out: inhibition of glycine incorporation, CDP proteins): ~80%
- inhibition at 0.05 µg/mL (Rat mesengial cells; non-collagenase digestible proteins, read-out: inhibition of glycine incorporation, NCDP proteins): ~80%
- inhibition at 0.2 µg/mL (Rat mesengial cells; collagenase-digestible proteins, read-out: inhibition of sulfate incorporation, CDP proteins): ~30%
- inhibition at 0.2 µg/mL (Rat mesengial cells; non-collagenase digestible proteins, read-out: inhibition of sulfate incorporation, NCDP proteins): ~70%
- concentration up to which cells remained viable and retained normal monolayer configuration and morphological appearance [2]: ≤ 2 μg/ml
- incorporation of proline into ECM ([3]; 3H-proline, both CDP and NCDP, FIG. 4B): inhibited
- incorporation of glycine into ECM ([3]; 14C-glycine, both CDP and NCDP, FIG. 4D): inhibited
- incorporation of lysine into ECM ([3]; 14C-lysine, both CDP and NCDP, FIG. 4C): inhibited
- incorporation of sulfate into ECM ([3]; Na2 35SO4, both CDP and NCDP, FIG. 4A): inhibited
- production of collagen (collagenase-digestible [3H]proline-labelled proteins) (keloid-derived cells): inhibited the production of collagen
- production of non-collagenase digestible proteins (keloid-derived cells): not of non-collagenase digestible proteins
